From patent US20070128217A1 (priority 2003, published 2007)

Tests used:
[1] = tested on: control sera (pooled serum of ten healthy LUMC hospital workers; commercial negative donor pooled serum from the Dutch bloodbank); type: binding, human; design: Binding of Control serum LUMC to linear peptides / Binding of Control serum Blood-bank to linear peptides / Binding of Control serum LUMC to looped peptides / Binding of Control Serum Blood-Bank to Looped peptides / Binding of Control serum LUMC to linear peptides of the protein M of SARS-CoV Urbani / Binding of Control serum Blood-bank to linear peptides of the protein M of SARS-CoV Urbani / Binding of Control serum LUMC to looped peptides of the protein M of SARS-CoV Urbani / Binding of Control Serum Blood-Bank to Looped peptides of the protein M of SARS-CoV Urbani: unit not given here
[2] = tested on: antibodies in sera from SARS patients (sera 1a, 1b, 2, 6, 37, 62, London, SARS-yellow, SARS-green); type: binding, human; design: Binding of serum 6 to linear peptides of protein X1 of SARS-CoV Urbani / Binding of serum 37 to linear peptides of protein X1 of SARS-CoV Urbani / Binding of serum 6 to looped/cyclic peptide (PEPSCAN-ELISA) / Binding of serum 37 to looped/cyclic peptide (PEPSCAN-ELISA) / Binding of serum 37 to looped/cyclic peptides of protein X1 of SARS-CoV Urbani / Binding of serum 6 to linear peptides of protein X2 / Binding of serum 37 to linear peptides of protein X2 / Binding of serum 37 to looped/cyclic peptides of protein X2 of SARS-CoV Urbani / Binding of serum 6 to linear peptides of protein M of SARS-CoV Urbani / Binding of serum 37 to linear peptides of protein M of SARS-CoV Urbani / Binding of serum 6 to looped/cyclic peptides of protein M of SARS-CoV Urbani / Binding of serum 37 to looped/cyclic peptides of protein M of SARS-CoV Urbani / Binding of serum 6 to linear peptides of protein X3 of SARS-CoV Urbani / Binding of serum 37 to linear peptides of protein X3 of SARS-CoV Urbani / Binding of serum 37 to looped/cyclic peptides of protein X3 of SARS-CoV Urbani / Binding of serum 6 to linear peptides of protein X4 of SARS-CoV Urbani / Binding of serum 37 to linear peptides of protein X4 of SARS-CoV Urbani / Binding of serum 37 to looped/cyclic peptides of protein X4 of SARS-CoV Urbani / Binding of serum 6 to linear peptides of protein X5 of SARS-CoV Urbani / Binding of serum 37 to linear peptides of protein X5 of SARS-CoV Urbani / Binding of serum 37 to looped/cyclic peptides of protein X5 of SARS-CoV Urbani / Binding of serum 6 to linear peptides of protein N of SARS-CoV Urbani / Binding of serum 37 to linear peptides of protein N of SARS-CoV Urbani / Binding of serum 6 to linear peptide (PEPSCAN-ELISA) / Binding of serum 1a to looped/cyclic peptides of protein N of SARS-CoV Urbani / Binding of serum 1b to looped/cyclic peptides of protein N of SARS-CoV Urbani / Binding of serum 2 to looped/cyclic peptides of protein N of SARS-CoV Urbani / Binding of serum 6 to looped/cyclic peptides of protein N of SARS-CoV Urbani / Binding of serum 37 to looped/cyclic peptides of protein N of SARS-CoV Urbani / Binding of serum 62 to looped/cyclic peptides of protein N of SARS-CoV Urbani / Binding of serum London to looped/cyclic peptides of protein N of SARS-CoV Urbani / Binding of serum SARS-green to looped/cyclic peptides of protein N of SARS-CoV Urbani: unit not given here
[3] = tested on: rabbit serum obtained by immunizing a rabbit with the SARS-CoV strain Frankfurt 1; type: binding; design: Binding of a rabbit serum to linear peptides / Binding of a rabbit serum to looped peptides / Rabbit serum linear peptides / Rabbit serum looped peptides / Binding of a rabbit serum to linear peptides of protein N of SARS-CoV Urbani (Rabbit serum linear peptides) / Binding of a rabbit serum to looped/cyclic peptides of protein N of SARS-CoV Urbani (Rabbit serum looped peptides): unit not given here

PVTLACFVLAAVYRI
0.3: Binding of serum 6 to linear peptides of protein M of SARS-CoV Urbani [2] | Binding of serum London to linear peptides of protein M of SARS-CoV Urbani [2] | Rabbit serum looped peptides [3]
0.5: Binding of Control serum Blood-bank to linear peptides of the protein M of SARS-CoV Urbani [1] | Binding of serum 1b to linear peptides of protein M of SARS-CoV Urbani [2] | Binding of serum 2 to linear peptides of protein M of SARS-CoV Urbani [2]
0.4: Rabbit serum linear peptides [3]
0.2: Binding of Control serum LUMC to linear peptides of the protein M of SARS-CoV Urbani [1] | Binding of serum London to looped/cyclic peptides of protein M of SARS-CoV Urbani [2] | Binding of serum SARS-green to linear peptides of protein M of SARS-CoV Urbani [2] | Binding of serum SARS-green to looped/cyclic peptides of protein M of SARS-CoV Urbani [2]
0.7: Binding of Control serum LUMC to looped peptides of the protein M of SARS-CoV Urbani [1] | Binding of serum 1a to linear peptides of protein M of SARS-CoV Urbani [2] | Binding of serum 1a to looped/cyclic peptides of protein M of SARS-CoV Urbani [2] | Binding of serum 6 to looped/cyclic peptides of protein M of SARS-CoV Urbani [2] | Binding of serum 37 to looped/cyclic peptides of protein M of SARS-CoV Urbani [2] | Binding of serum 62 to linear peptides of protein M of SARS-CoV Urbani [2] | Binding of serum 62 to looped/cyclic peptides of protein M of SARS-CoV Urbani [2]
0.0: Binding of serum SARS-yellow to linear peptides of protein M of SARS-CoV Urbani [2]
0.6: Binding of Control Serum Blood-Bank to Looped peptides of the protein M of SARS-CoV Urbani [1] | Binding of serum 1b to looped/cyclic peptides of protein M of SARS-CoV Urbani [2] | Binding of serum 2 to looped/cyclic peptides of protein M of SARS-CoV Urbani [2] | Binding of serum 37 to linear peptides of protein M of SARS-CoV Urbani [2] | Binding of serum SARS-yellow to looped/cyclic peptides of protein M of SARS-CoV Urbani [2]

MLHSSSLTSLLKTHR
0.3: Binding of serum 37 to looped/cyclic peptides of protein X2 of SARS-CoV Urbani [2]
0.2: Binding of serum 6 to looped/cyclic peptides of protein X2 of SARS-CoV Urbani [2] | Binding of serum London to looped/cyclic peptides of protein X2 of SARS-CoV Urbani [2] | Binding of a rabbit serum to linear peptides [3]
0.5: Binding of Control serum Blood-bank to linear peptides [1] | Binding of Control serum LUMC to looped peptides [1] | Binding of serum 1a to looped/cyclic peptides of protein X2 of SARS-CoV Urbani [2] | Binding of serum 1b to looped/cyclic peptides of protein X2 of SARS-CoV Urbani [2] | Binding of serum 2 to looped/cyclic peptides of protein X2 of SARS-CoV Urbani [2] | Binding of serum 37 to linear peptides of protein X2 [2] | Binding of serum 62 to linear peptides of protein X2 [2] | Binding of serum 62 to looped/cyclic peptides of protein X2 of SARS-CoV Urbani [2] | Binding of serum SARS-green to linear peptides of protein X2 [2] | Binding of serum SARS-yellow to linear peptides of protein X2 [2] | Binding of serum SARS-yellow to looped/cyclic peptides of protein X2 of SARS-CoV Urbani [2] | Binding of a rabbit serum to looped peptides [3]
0.6: Binding of Control Serum Blood-Bank to Looped peptides [1] | Binding of serum 1a to linear peptides of protein X2 [2] | Binding of serum 6 to linear peptides of protein X2 [2] | Binding of serum London to linear peptides of protein X2 [2]
0.4: Binding of Control serum LUMC to linear peptides [1] | Binding of serum 1b to linear peptides of protein X2 [2] | Binding of serum 2 to linear peptides of protein X2 [2] | Binding of serum SARS-green to looped/cyclic peptides of protein X2 of SARS-CoV Urbani [2]

LQCINACRIIMRCWL
0.2: Binding of serum SARS-green to looped/cyclic peptide (PEPSCAN-ELISA) [2]
0.7: Binding of Control Serum Blood-Bank to Looped peptides [1] | Binding of Control serum LUMC to linear peptides [1] | Binding of serum 1a to linear peptides of protein X1 of SARS-CoV Urbani [2] | Binding of serum 37 to linear peptides of protein X1 of SARS-CoV Urbani [2]
1.4: Binding of serum 6 to looped/cyclic peptide (PEPSCAN-ELISA) [2]
0.4: Binding of serum SARS-yellow to looped/cyclic peptide (PEPSCAN-ELISA) [2]
recognized: Recognition of the peptide by the rabbit serum [3]
0.1: Binding of serum SARS-green to linear peptides of protein X1 of SARS-CoV Urbani [2]
0.6: Binding of Control serum LUMC to looped peptides [1] | Binding of serum 2 to looped/cyclic peptide (PEPSCAN-ELISA) [2] | Binding of serum 6 to linear peptides of protein X1 of SARS-CoV Urbani [2] | Binding of serum 37 to looped/cyclic peptide (PEPSCAN-ELISA) [2] | Binding of serum 62 to linear peptides of protein X1 of SARS-CoV Urbani [2]
1.7: Binding of serum London to looped/cyclic peptide (PEPSCAN-ELISA) [2]
0.9: Binding of Control serum Blood-bank to linear peptides [1] | Binding of serum 62 to looped/cyclic peptide (PEPSCAN-ELISA) [2]
0.3: Binding of serum 1b to looped/cyclic peptide (PEPSCAN-ELISA) [2] | Binding of serum London to linear peptides of protein X1 of SARS-CoV Urbani [2] | Binding of serum SARS-yellow to linear peptides of protein X1 of SARS-CoV Urbani [2]
0.5: Binding of serum 1a to looped/cyclic peptide (PEPSCAN-ELISA) [2] | Binding of serum 1b to linear peptides of protein X1 of SARS-CoV Urbani [2] | Binding of serum 2 to linear peptides of protein X1 of SARS-CoV Urbani [2]
